From US20240270741A1 (Cogent Biosciences, Inc., priority 2023, published 2024)

molecular target: FGFR2 (Homo sapiens, UniProt P21802); experiment: FGFR wild type enzyme assay (HTRF KinEASE-TK), FGFR2; conditions: Enz FGFR2 (nM)
Sequence (P21802 399-821 limits assumed): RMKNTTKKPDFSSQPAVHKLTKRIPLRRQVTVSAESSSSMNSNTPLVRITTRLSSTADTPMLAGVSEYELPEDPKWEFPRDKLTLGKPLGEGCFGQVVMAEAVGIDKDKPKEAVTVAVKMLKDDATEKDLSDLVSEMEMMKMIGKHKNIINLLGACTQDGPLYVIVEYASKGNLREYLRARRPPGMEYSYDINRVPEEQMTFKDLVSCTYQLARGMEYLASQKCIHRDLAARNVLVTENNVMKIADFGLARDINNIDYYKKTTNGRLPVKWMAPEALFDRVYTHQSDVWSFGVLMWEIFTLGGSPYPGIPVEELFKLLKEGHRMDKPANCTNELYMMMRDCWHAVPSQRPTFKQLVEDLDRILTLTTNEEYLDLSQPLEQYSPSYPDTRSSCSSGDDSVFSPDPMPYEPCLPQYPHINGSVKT
Protocol: Activity against FGFR wild type and mutant enzymes were determined in biochemical assays using purified intracellular domains of the respective isoforms using HTRF KinEASE-TK assay technology from CisBio, now PerkinElmer. (Catalogue number 62TK0PEC). Briefly test compounds were tested in 11 point 1:3 serial dilutions, typical final concentration ranges from 10,000 nM to 0.17 nM. Test compounds were dissolved in DMSO and added to assay plates using acoustic transfer. Enzyme was pre-incubated with test compound for 30 minutes and the assay was initiated by addition of ATP and TK-peptide substrate. After 60 minutes at room temperature the reaction was quenched with detection reagent and incubated for an additional 60 minutes at room temperature. The plates were read using a multimode reader and the emission ratio of 665 nm to 615 nm was determined. This ratio was converted to percent of control (POC). [1-(high control-sample signal)/(high control-low control)]*100. Wells without compound were used to determine high control values and wells without enzyme were used to determine low control values. The POC values were fit using a four-parameter logistic model and the value where the fit curve was equal to 50 POC was reported as the IC50 using the Signals Vitro Vivo software package (PerkinElmer). Final assay conditions were: 50 mM HEPES pH7.5, 10 mM MgCl2, 1 mM EDTA, 0.01% Brij-35, 2 mM MnCl2, 1 mM DTT, and 0.5 uM TK-peptide.

Row | SMILES | IC50
1 | Cc1c(-c2cc(SCCOC(C)C)c3c(C#N)cnn3c2)cnn1[C@H]1CCCNC1 [Example 85, 4-(2-isopropoxyethylsulfanyl)-6-[5-methyl-1-[(3S)-3-piperidyl]pyrazol-4-yl]pyrazolo[1,5-a]pyridine-3-carbonitrile] | 7 nM
2 | Cc1c(-c2cc(Sc3ncccc3F)c3c(C#N)cnn3c2)cnn1[C@H]1CCCNC1 [Example 86, 4-[(3-fluoro-2-pyridyl)sulfanyl]-6-[5-methyl-1-[(3S)-3-piperidyl]pyrazol-4-yl]pyrazolo[1,5-a]pyridine-3-carbonitrile] | 2 nM
3 | CCSc1cc(-c2cnn([C@H]3CCCN(C[C@H](O)CO)C3)c2)cn2ncc(C#N)c12 [Example 87, 6-[1-[(3S)-1-[(2S)-2,3-dihydroxypropyl]-3-piperidyl]pyrazol-4-yl]-4-ethylsulfanyl-pyrazolo[1,5-a]pyridine-3-carbonitrile] | 1 nM
4 | CC(C)Sc1cc(-c2cnn([C@H]3CCCN(C[C@H](O)CO)C3)c2)cn2ncc(C#N)c12 [Example 88, 6-[1-[(3S)-1-[(2S)-2,3-dihydroxypropyl]-3-piperidyl]pyrazol-4-yl]-4-isopropylsulfanyl-pyrazolo[1,5-a]pyridine-3-carbonitrile] | 1 nM
5 | CC(C)Sc1cc(-c2cnn([C@H]3CCCN(CCO)C3)c2)cn2ncc(C#N)c12 [Example 89, 6-[1-[(3S)-1-(2-hydroxyethyl)-3-piperidyl]pyrazol-4-yl]-4-isopropylsulfanyl-pyrazolo[1,5-a]pyridine-3-carbonitrile] | 1 nM
6 | N#Cc1cnn2cc(-c3cnn(C4CCN(CCO)CC4)c3)cc(Sc3ccccn3)c12 [Example 90, 6-[1-[1-(2-hydroxyethyl)-4-piperidyl]pyrazol-4-yl]-4-(2-pyridylsulfanyl)pyrazolo[1,5-a]pyridine-3-carbonitrile] | 2 nM
7 | N#Cc1cnn2cc(-c3cnn([C@H]4CCCN(CCO)C4)c3)cc(Sc3ccccn3)c12 [Example 91, 6-[1-[(3S)-1-(2-hydroxyethyl)-3-piperidyl]pyrazol-4-yl]-4-(2-pyridylsulfanyl)pyrazolo[1,5-a]pyridine-3-carbonitrile] | 2 nM
8 | CC(C)N1CCC(n2cc(-c3cc(Sc4ccccn4)c4c(C#N)cnn4c3)cn2)CC1 [Example 92, 6-[1-(1-isopropyl-4-piperidyl)pyrazol-4-yl]-4-(2-pyridylsulfanyl)pyrazolo[1,5-a]pyridine-3-carbonitrile] | 3 nM
9 | CC(=O)N1CCC(n2cc(-c3cc(Sc4ccccn4)c4c(C#N)cnn4c3)cn2)CC1 [Example 93, 6-[1-(1-acetyl-4-piperidyl)pyrazol-4-yl]-4-(2-pyridylsulfanyl)pyrazolo [1,5-a]pyridine-3-carbonitrile] | 3 nM
10 | CN1CCC[C@H]1C(=O)N1CCC(n2cc(-c3cc(Sc4ccccn4)c4c(C#N)cnn4c3)cn2)CC1 [Example 94, 6-[1-[1-[(2S)-1-methylpyrrolidine-2-carbonyl]-4-piperidyl]pyrazol-4-yl]-4-(2-pyridylsulfanyl) pyrazolo[1,5-a]pyridine-3-carbonitrile] | 2 nM
11 | N#Cc1cnn2cc(-c3ccc(N4CCCC4)nc3)cc(Sc3ccccn3)c12 [Example 95, 4-(2-pyridylsulfanyl)-6-(6-pyrrolidin-1-yl-3-pyridyl)pyrazolo[1,5-a]pyridine-3-carbonitrile] | 13 nM
12 | N#Cc1cnn2cc(-c3ccc(OCCN4CCOCC4)nc3)cc(Sc3ccccn3)c12 [Example 96, 6-[6-(2-morpholinoethoxy)-3-pyridyl]-4-(2-pyridylsulfanyl) pyrazolo[1,5-a]pyridine-3-carbonitrile] | 82 nM
13 | N#Cc1cnn2cc(-c3cnn([C@H]4CCN(CCO)C4)c3)cc(Sc3ccccn3)c12 [Example 97, (S)-6-(1-(1-(2-hydroxyethyl)pyrrolidin-3-yl)-1H-pyrazol-4-yl)-4-(pyridin-2-ylthio)pyrazolo[1,5-a]pyridine-3-carbonitrile] | 4 nM
14 | Cc1c(-c2cc(Sc3ccccn3)c3c(C#N)cnn3c2)cnn1C1CCN(C(=O)CO)CC1 [Example 98, 6-(1-(1-(2-hydroxyacetyl)piperidin-4-yl)-5-methyl-1H-pyrazol-4-yl)-4-(pyridin-2-ylthio)pyrazolo[1,5-a]pyridine-3-carbonitrile] | 7 nM
15 | Cc1c(-c2cc(Sc3ccccn3)c3c(C#N)cnn3c2)cnn1C1CCN(C(=O)[C@@H]2CCCN2C)CC1 [Example 99, 6-(5-methyl-1-(1-(methyl-L-prolyl)piperidin-4-yl)-1H-pyrazol-4-yl)-4-(pyridin-2-ylthio)pyrazolo[1,5-a]pyridine-3-carbonitrile] | 5 nM
16 | Cc1c(-c2cc(Sc3ccccn3)c3c(C#N)cnn3c2)cnn1C1CCN(CCO)CC1 [Example 100, 6-(1-(1-(2-hydroxyethyl)piperidin-4-yl)-5-methyl-1H-pyrazol-4-yl)-4-(pyridin-2-ylthio)pyrazolo[1,5-a]pyridine-3-carbonitrile] | 5 nM
17 | Cc1c(-c2cc(Sc3ncccc3F)c3c(C#N)cnn3c2)cnn1C1CCNCC1 [Example 101, 4-[(3-fluoro-2-pyridyl)sulfanyl]-6-[5-methyl-1-(4-piperidyl)pyrazol-4-yl] pyrazolo[1,5-a]pyridine-3-carbonitrile] | 2 nM

Now from value to compound:

Row | IC50 | SMILES
18 | 6 nM | Cc1c(-c2cc(Sc3ncccc3F)c3c(C#N)cnn3c2)cnn1[C@@H]1CCCNC1 [Example 102, 4-[(3-fluoro-2-pyridyl)sulfanyl]-6-[5-methyl-1-[(3R)-3-piperidyl]pyrazol-4-yl]pyrazolo[1,5-a]pyridine-3-carbonitrile]
19 | 4 nM | Cc1c(-c2cc(Sc3ncccc3F)c3c(C#N)cnn3c2)cnn1[C@H]1CCNC1 [Example 103]
20 | 1 nM | Cc1c(-c2cc(Sc3ccccc3C#N)c3c(C#N)cnn3c2)cnn1C1CCNCC1 [Example 104]
21 | 1 nM | Cc1c(-c2cc(Sc3ccccc3C#N)c3c(C#N)cnn3c2)cnn1[C@H]1CCCNC1 [Example 105, 4-(2-cyanophenyl)sulfanyl-6-[5-methyl-1-[(3S)-3-piperidyl]pyrazol-4-yl]pyrazolo[1,5-a]pyridine-3-carbonitrile]
22 | 2 nM | Cc1c(-c2cc(Sc3ccccc3C#N)c3c(C#N)cnn3c2)cnn1[C@@H]1CCNC1 [Example 106, 4-(2-cyanophenyl) sulfanyl-6-[5-methyl-1-[(3R)-pyrrolidin-3-yl]pyrazol-4-yl]pyrazolo[1,5-a]pyridine-3-carbonitrile]
23 | 1 nM | Cc1c(-c2cc(Sc3ncccc3F)c3c(C#N)cnn3c2)cnn1C1CCN(C)CC1 [Example 107, 4-[(3-fluoro-2-pyridyl)sulfanyl]-6-[5-methyl-1-(1-methyl-4-piperidyl)pyrazol-4-yl]pyrazolo[1,5-a]pyridine3-carbonitrile]
24 | 2 nM | Cc1c(-c2cc(Sc3ncccc3F)c3c(C#N)cnn3c2)cnn1C1CCN(CCO)CC1 [Example 108, 4-[(3-fluoro-2-pyridyl)sulfanyl]-6-[5-methyl-1-(1-methyl-4-piperidyl)pyrazol-4-yl]pyrazolo[1,5-a]pyridine3-carbonitrilee]
25 | 2 nM | COCCN1CCC(n2ncc(-c3cc(Sc4ncccc4F)c4c(C#N)cnn4c3)c2C)CC1 [Example 109, 4-[(3-fluoro-2-pyridyl)sulfanyl]-6-[1-[1-(2-methoxyethyl)-4-piperidyl]-5-methyl-pyrazol-4-yl]pyrazolo[1,5-a]pyridine-3-carbonitrile]
26 | 3 nM | Cc1c(-c2cc(Sc3ncc(F)cc3F)c3c(C#N)cnn3c2)cnn1C1CCNCC1 [Example 110, 4-[(3,5-difluoro-2-pyridyl)sulfanyl]-6-[5-methyl-1-(4-piperidyl)pyrazol-4-yl]pyrazolo[1,5-a]pyridine-3-carbonitrile]
27 | 3 nM | Cc1ccc(F)c(Sc2cc(-c3cnn(C4CCN(C)CC4)c3C)cn3ncc(C#N)c23)n1 [Example 111, 4-[(3-fluoro-6-methyl-2-pyridyl)sulfanyl]-6-[5-methyl-1-(1-methyl-4-piperidyl)pyrazol-4-yl]pyrazolo[1,5-a]pyridine-3-carbonitrile]
28 | 2 nM | Cc1c(-c2cc(Sc3ccccc3C#N)c3c(C#N)cnn3c2)cnn1[C@@H]1CCCNC1 [Example 112, 4-(2-cyanophenyl)sulfanyl-6-[5-methyl-1-[(3R)-3-piperidyl]pyrazol-4-yl]pyrazolo[1,5-a]pyridine-3-carbonitrile]
29 | 1 nM | Cc1c(-c2cc(Sc3ncccc3F)c3c(C#N)cnn3c2)cnn1[C@H]1CC[C@@H](N(C)C)CC1 [Example 113]
30 | 3 nM | Cc1nc(Sc2cc(-c3cnn(C4CCNCC4)c3C)cn3ncc(C#N)c23)ccc1F [Example 114, 4-[(5-fluoro-6-methyl-2-pyridyl)sulfanyl]-6-[5-methyl-1-(4-piperidyl)pyrazol-4-yl]pyrazolo[1,5-a]pyridine-3-carbonitrile]
31 | 1 nM | Cc1nc(Sc2cc(-c3cnn(C4CCNCC4)c3C)cn3ncc(C#N)c23)ccc1Cl [Example 115, 4-[(5-chloro-6-methyl-2-pyridyl)sulfanyl]-6-[5-methyl-1-(4-piperidyl)pyrazol-4-yl]pyrazolo[1,5-a]pyridine-3-carbonitrile]
32 | 45 nM | Cc1cc(Sc2cc(-c3cnn(C4CCNCC4)c3C)cn3ncc(C#N)c23)c(F)cn1 [Example 116, -[(5-fluoro-2-methyl-4-pyridyl)sulfanyl]-6-[5-methyl-1-(4-piperidyl)pyrazol-4-yl]pyrazolo[1,5-a]pyridine-3-carbonitrile]
33 | 1 nM | Cc1c(-c2cc(Sc3ccccc3F)c3c(C#N)cnn3c2)cnn1C1CCNCC1 [Example 118, 4-(2-fluorophenyl)sulfanyl-6-[5-methyl-1-(4-piperidyl)pyrazol-4-yl]pyrazolo[1,5-a]pyridine-3-carbonitrile]
34 | 1 nM | Cc1c(-c2cc(Sc3c(F)cccc3C#N)c3c(C#N)cnn3c2)cnn1C1CCN(C)CC1 [Example 119]
35 | 1 nM | Cc1c(-c2cc(Sc3cccn4cncc34)c3c(C#N)cnn3c2)cnn1C1CCN(C)CC1 [Example 120, 4-imidazo[1,5-a]pyridin-8-ylsulfany1-6-[5-methyl-1-(1-methyl-4-piperidyl)pyrazol-4-yl]pyrazolo[1,5-a]pyridine-3-carbonitrile]
36 | 99 nM | Cc1nccc(Sc2cc(-c3cnn(C4CCNCC4)c3C)cn3ncc(C#N)c23)c1F [Example 121]
